# Laboratory results taken from US9464280B1, “Beta-lactamases with improved properties for therapy” (priority 2014, dated 2016).
# Like-named read-outs stand apart in the source and are kept apart here.
# B1: IS288: P1A with A232G A237S A238G S240D D276N; SEQ ID NO: 5 (protein)
# chain: EMKDDFAKLEEQFDAKLGIFALDTGTNRTVAYRPDERFAFASTIKALTVGVLLQQKSIEDLNQRITTRDDLVNYNPITEKHVDTGMTLKELADASLRYSDNAAQNLILKQIGGPESLKKELRKIGDEVTNPERFEPELNEVNPGETQDTSTARALVTSLRAFALEDKLPSEKRELLIDWMKRNTTGDALIRAGVPDGWEVGDKTGSGDYGTRNDIAIIWPPKGDPVVLAVLSSRDKKDAKYDNKLIAEATKVVMKALNMNGK
# Experiments:
# [1] = tested on: Escherichia coli ATCC 25922; experiment: Microbroth dilution: EC50 of ampicillin and ceftriaxone in absence and presence of P1A; type: cell-based; details: Escherichia coli, ATCC25922, P1A 0, read-out: Ampiellin EC50
# Description: (§1) Escherichia coli strain 25922 was cultured from glycerol stocks to logarithmic growth in cation adjusted Mueller-Hinton broth at 37° C. in an atmospheric environment and diluted in cation adjusted Mueller-Hinton broth to achieve a starting in well concentration of 5×10^5 CFU/mL. Serial 2-fold dilution of antimicrobial compounds were prepared in cation adjusted Mueller-Hinton broth to achieve final in well concentration of 128 μg/mL to 0.13 μg/mL for ampicillin and 4 μg/mL 4 ng/mL in the absence or presence of serial 10-fold dilutions of P1A, P3A, or P4A β-lactamase standard, 5 pg/mL to 50 ng/mL for ampicillin and […] to 500 ng/mL for ceftriaxone, ceftazidime, meropenem, cefepime, cefazolin, amp/sulbactam, cefoperazone, cefotaxime, and cefuroxime. Antibiotics were either added to the P1A and incubated for 30 min at 37° C. (pre-incubation) prior to addition of bacteria, or added to the plates following the addition of P1A, P3A, P4A, and bacteria (simultaneous). All concentrations and combinations were evaluated in triplicate in a 96-well plate format that contained media only, compound plus media only (colorimetric control), and untreated bacterial controls.
# The 50% effective inhibitory concentration (EC50) of ampicillin and ceftriaxone against Escherichia coli was determined in the absence and presence of P1A β-lactamase. For the purposes of these studies, the stated effective concentration was the initial concentration of ampicillin or ceftriaxone added at the beginning of the experiment, and not a concentration measured during the course of the experiment or at the end of the incubation period.
# Antibiotics were either added to the P1A and incubated for 30 min at 37° C. (Pre-incubation) prior to addition of bacteria, or added to the plates following the addition of P1A and bacteria (Simultaneous). All concentrations and combinations were evaluated in triplicate in a 96-well plate format. Following overnight incubation, the 0D625 of the plates was measured in a Spectramax 384 plate reader and the data were imported into a customized Excel spreadsheet for the determination of the 50% effective inhibitory concentration at (EC50) by linear regression analysis. For the purposes of these studies, the stated effective concentration is the initial concentration of ampicillin or ceftriaxone added at the beginning of the experiment, and not a concentration measured during the course of the experiment or at the end of the incubation period.
# Antibiotics were either added to the P1A and incubated for 30 min at 37° C. (Pre-incubation) prior to addition of bacteria, or added to the plates following the addition of P1A and bacteria (Simultaneous). All concentrations and combinations were evaluated in triplicate in a 96-well plate format. Following overnight incubation, the OD625 of the plates was measured in a Spectramax 384 plate reader and the data were imported into a customized Excel spreadsheet for the determination of the 50% effective inhibitory concentration (EC50).
# Antibiotics were added to the P1A bacteria (Simultaneous). All concentrations and combinations were evaluated in triplicate in a 96-well plate format. Following overnight incubation, the OD625 of the plates was measured in a Spectramax 384 plate reader and the data were imported into a customized Excel spreadsheet for the determination of the 50% effective inhibitory concentration at (EC50) by linear regression analysis.
# [2] = tested on: Escherichia coli ATCC 25922; experiment: microbe, parasite or virus in culture; type: cell-based; details: for EC50 / EC90: Escherichia coli, ATCC25922, no enzyme
# [3] = tested on: Escherichia coli ATCC 25922; experiment: microbe, parasite or virus in culture; type: cell-based; details: for EC90: Escherichia coli, ATCC25922, no enzyme
# Description: as §1
# Next, the 90% effective inhibitory concentration (EC90) of ampicillin, ceftriaxone, ceftazidime, meropenem, cefepime, cefazolin, amp/sulbactam, cefoperazone, cefotaxime, and cefuroxime against Escherichia coli was determined in the absence and presence of P1A, P3A, or P4A β-lactamase. For the purposes of these studies, the stated effective concentration was the initial concentration of ampicillin, ceftriaxone, ceftazidime, meropenem, cefepime, cefazolin, amp/sulbactam, cefoperazone, cefotaxime, and cefuroxime added at the beginning of the experiment, and not a concentration measured during the course of the experiment or at the end of the incubation period.
# Specifically, the assay was performed by diluting (2-fold steps) the chosen antibiotic across the rows of a 96 well dish. The MIC was determined as the point at which the diluted antibiotic transitions from killing to not killing the bacteria (in this case, an E. coli strain that is sensitive to all antibiotics). P1A, P3A, and P4A were diluted (10 fold steps) down the columns (the β-lactamase concentrations increased down the columns). […] The latter point was used as the cut-off point. […] However, for this assay, the absolute MIC is not the most important parameter. The most relevant readout was the β-lactamase concentration at which the apparent MIC increases to the maximum amount of antibiotic tested.
# (§2) E coli 29522 was incubated overnight in the presence of serial dilutions of antibiotic and the indicated amounts of β-lactamase protein from cell culture supernatants in a 96 well plate. Bacterial density (OD625) of the cultures was measured and the concentration at which the density was reduced by 90% relative to an untreated bacterial control (EC90) was determined. The assay was performed on two separate days and the data reported as Rep1 and Rep2. NA=not assayed.
# as §2, with “determined.” for “determined. The assay was performed on two separate days and the data reported as Rep1 and Rep2. NA=not assayed.”
# [4] = Preliminary enzymatic activity of P1A mutants from B. subtilis supernatants; type: biochemical; details: B. subtilis supernatant, one substrate concentration
# Description: β-lactamase activity of the mutants was further characterised from E. coli cell lysates and B. subtilis growth supernatant with ampicillin, cefotaxime, ceftriaxone, cefuroxime, ceftazidime, meropenem and imipenem. The activities were determined using only one substrate concentration of each antibiotic tested. Selection of the antibiotic concentration was done with the antibiotic concentration as high as was practical, [S]>>Km. Based on these preliminary experiments, more accurate kinetic parameters were determined for a couple of mutants from both the site-directed and the random mutagenesis research lines. All the mutant enzymes selected for more detailed study were expressed in the B. subtilis host strain RS303. The cells carrying the mutated proteins were grown in minimal medium over-night after which the cells were harvested and the supernatant was concentrated in 1:10 with Amicon Ultra-4 centrifugal devices, MWCO 10000 (Amicon). Protein concentration in each culture supernatant was estimated from 12% SDS-PAGE (Criterion XT Bis-Tris, BioRad, Calif., USA) using the P1A reference material A18K31 as a standard. Kinetic parameters were measured for cefotaxime, ceftriaxone and cefuroxime for each selected mutant strain. The site-directed mutants were designed to hydrolyze cefotaxime and random mutants were screened with ceftriaxone, which made these antibiotics natural choices for determining kinetic parameters.
# E. coli (ATCC 25922) = experiment: Microtiter plate antibiotic degradation activity assay; type: cell-based
# Description: P1A and P4A were screened for degradation of ampicillin, ceftriazone, cefotaxime, cefozolin, cefuroxime, cefoperazone, cefepime, and ceftazidime in a microtiter plate activity assay that was designed to mimic the activity of the beta-lactamases in the gut in the presence of high antibiotic concentrations. The assay was performed by mixing 10, 100 or 1000 μg/ml of the indicated antibiotics with P1A or P4A, at concentrations of 10 or 100 ng/ml. Plates were either incubated for one hour at 37° C. after which E. coli (ATCC 25922) was added, or E. coli was added immediately after the addition of the beta-lactamase enzymes. The plates were incubated overnight and the bacterial growth quantified by measuring the absorbance at 625 nm (OD625) in a Spectramax 384 Plus plate reader. The analysis was performed twice for each beta-lactamase and antibiotic. The beta-lactamase activity of the culture supernatants was determined as positive or negative based on the appearance of bacterial growth in the individual wells. An OD625 of 1.0 or greater indicated maximal bacterial growth, therefore complete antibiotic degradation and high beta-lactamase activity.
# [5] = no enzyme, 2nd value, high test 2 μg/mL
molecule,measurement,setting,value
CC1(C)S[C@@H]2[C@H](NC(=O)[C@H](N)c3ccccc3)C(=O)N2[C@H]1C(=O)O [Ampicillin],EC50,"[1]; pre-incubation, Table 12",16 µg/mL
same,EC50,"[1]; pre-incubation, Table 13",16 µg/mL
same,EC50,"[1]; simultaneous, Table 12",16 µg/mL
same,EC50,"[1]; simultaneous, Table 13",16 µg/mL
same,EC50,"[1]; simultaneous, Table 14 repeat analysis",16 µg/mL
same,EC50,"[2]; Rep 1, Table 15, read-out: Ampiellin EC50",2 µg/mL
same,EC50,"[2]; Rep 2, Table 15, read-out: Ampiellin EC50",4 µg/mL
Cc1nnc(SCC2=C(C(=O)O)N3C(=O)[C@@H](NC(=O)Cn4cnnn4)[C@H]3SC2)s1 [Cefazolin],EC90,"[2]; 1st value, high test 64 μg/mL, read-out: Cefazolin EC90",2 µg/mL
same,EC90,"[2]; 2nd value, high test 64 μg/mL, read-out: Cefazolin EC90",2 µg/mL
CO/N=C(\C(=O)N[C@@H]1C(=O)N2C(C(=O)[O-])=C(C[N+]3(C)CCCC3)CS[C@H]12)c1csc(N)n1 [Cefepime],EC50,"[2]; 1st value, high test 2 μg/mL, read-out: Cefepime EC50",0.06 µg/mL
same,EC50,"[2]; 2nd value, high test 2 μg/mL, read-out: Cefepime EC50",0.03 µg/mL
same,Cefepime EC50,[2]; [5],0.03/0.03 μg/mL
CCN1CCN(C(=O)N[C@@H](C(=O)N[C@@H]2C(=O)N3C(C(=O)O)=C(CSc4nnnn4C)CS[C@H]23)c2ccc(O)cc2)C(=O)C1=O [Cefoperazone],Cefoperazone EC90,"[3]; no enzyme, 1st value, high test 8 μg/mL",0.25/0.25 μg/mL
same,EC90,"[2]; 1st value, high test 8 μg/mL, read-out: Cefoperazone EC90",0.25 µg/mL
same,EC90,"[2]; 2nd value, high test 8 μg/mL, read-out: Cefoperazone EC90",0.13 µg/mL
same,Cefoperazone EC90,"[2]; no enzyme, 2nd value, high test 8 μg/mL",0.25/0.25 μg/mL
CO/N=C(\C(=O)N[C@@H]1C(=O)N2C(C(=O)O)=C(COC(C)=O)CS[C@H]12)c1csc(N)n1 [Cefotaxime],EC90,"[3]; 2nd value, high test 2 μg/mL, read-out: Cefotaxime EC90",0.008 µg/mL
same,EC90,"[2]; 1st value, high test 2 μg/mL, read-out: Cefotaxime EC90",0.004 µg/mL
same,Cefotaxime EC90,"[2]; no enzyme, 1st value, high test 2 μg/mL",0.004/0.004 μg/mL
same,Cefotaxime EC90,[2]; [5],0.004/0.004 μg/mL
CC(C)(O/N=C(\C(=O)N[C@@H]1C(=O)N2C(C(=O)[O-])=C(C[n+]3ccccc3)CS[C@H]12)c1csc(N)n1)C(=O)O [Ceftazidime],EC50,"[2]; 1st value, high test 4 μg/mL, read-out: Ceftazidime EC50",0.13 µg/mL
same,Ceftazidime EC50,"[2]; no enzyme, 1st value, high test 4 μg/mL",0.13/0.13 μg/mL
same,Ceftazidime EC50,"[2]; no enzyme, 2nd value, high test 4 μg/mL",0.5 µg/mL
CO/N=C(\C(=O)N[C@@H]1C(=O)N2C(C(=O)O)=C(COC(N)=O)CS[C@H]12)c1ccco1 [Cefuroxime],EC90,"[3]; 1st value, high test 128 μg/mL, read-out: Cefuroxime EC90",4 µg/mL
same,Cefuroxime EC90,"[3]; no enzyme, 1st value, high test 128 μg/mL",2.0 µg/mL
same,EC90,"[2]; 2nd value, high test 128 μg/mL, read-out: Cefuroxime EC90",4 µg/mL
same,Cefuroxime EC90,"[2]; no enzyme, 2nd value, high test 128 μg/mL",2.0 µg/mL
C[C@@H](O)[C@H]1C(=O)N2C(C(=O)O)=C(S[C@@H]3CN[C@H](C(=O)N(C)C)C3)[C@H](C)[C@H]12 [Meropenem],EC50,"[2]; 1st value, high test 1 μg/mL, read-out: Meropenem EC50",0.06 µg/mL
same,EC50,"[2]; 2nd value, high test 1 μg/mL, read-out: Meropenem EC50",0.06 µg/mL
same,Meropenem EC50,"[2]; no enzyme, 2nd value, high test 1 μg/mL",0.03 µg/mL
IS203: P1A with T160F,AMP = ampicillin enzymatic activity,[4],0.01 multiples of P1A
same,CAZ = ceftazidime enzymatic activity,[4],0.13 multiples of P1A
same,CRO = ceftriaxone enzymatic activity,[4],0.00 multiples of P1A
same,CTX = cefotaxime enzymatic activity,[4],0.01 multiples of P1A
same,CXM = cefuroxime enzymatic activity,[4],0.00 multiples of P1A
B1,inhibition by sulbactam,[3]; amp/sulbactam data,effectively inhibited
same,"activity relative to P1A, all antibiotics except ampicillin","E. coli (ATCC 25922); enzyme 10 or 100 ng/ml, FIG. 8",imporved activity relative to P1A
same,cephalosporinase activity boosted relative to P1A,E. coli (ATCC 25922); modification of five amino acids in P1A,10-1000 fold
same,improvement of activity for ceftazidime,[2]; data showed activity at 500 ng/ml,10 fold
same,β-lactamase activity in comparison to P1A,"[2]; for ceftriaxone, cefotaxime, ceftazidime, cefazolin, cefoperazone and cefuroxime",≥ 10 fold
